Laboratory results reported in US20070037752A1, “Novel alanyl-amino peptidase inhibitors for functionally influencing different cells and treating immunological, inflammatory, neuronal, and other diseases” (priority 2003, published 2007).
Read-outs that look alike come from different tables or passages of the source. Residues, ends and D or L forms follow the SMILES beside them. *: point of attachment. Fmoc = O=C(OCC1c2ccccc2-c2ccccc21)*

Molecular target: alanyl aminopeptidases (APN) (Homo sapiens, UniProt P15144)
Assay: Inhibition of alanyl aminopeptidase enzymatic activity, fluorogenic substrate (Ala)2-rhodamine 110
Format: biochemical
Protocol: The inhibition characteristics measured are referred to as IC-50 values or ID50 values (the latter marked with “*”) for said enzyme. The enzymatic activity was determined by means of the fluorogenic substrate/product (Ala)2-rhodamine 110.

[1] = Table 4, unstarred values, read-out: IC50APN
[2] = Table 3, unstarred values, read-out: IC50APN
[3] = Table 4, starred values = ID50, read-out: ID50 APN (values marked with *)
[4] = Table 8, unstarred values, read-out: IC50APN
[5] = Table 9, unstarred values, read-out: IC50APN

Sequence of alanyl aminopeptidases (APN) (P15144 whole entry, species assumed): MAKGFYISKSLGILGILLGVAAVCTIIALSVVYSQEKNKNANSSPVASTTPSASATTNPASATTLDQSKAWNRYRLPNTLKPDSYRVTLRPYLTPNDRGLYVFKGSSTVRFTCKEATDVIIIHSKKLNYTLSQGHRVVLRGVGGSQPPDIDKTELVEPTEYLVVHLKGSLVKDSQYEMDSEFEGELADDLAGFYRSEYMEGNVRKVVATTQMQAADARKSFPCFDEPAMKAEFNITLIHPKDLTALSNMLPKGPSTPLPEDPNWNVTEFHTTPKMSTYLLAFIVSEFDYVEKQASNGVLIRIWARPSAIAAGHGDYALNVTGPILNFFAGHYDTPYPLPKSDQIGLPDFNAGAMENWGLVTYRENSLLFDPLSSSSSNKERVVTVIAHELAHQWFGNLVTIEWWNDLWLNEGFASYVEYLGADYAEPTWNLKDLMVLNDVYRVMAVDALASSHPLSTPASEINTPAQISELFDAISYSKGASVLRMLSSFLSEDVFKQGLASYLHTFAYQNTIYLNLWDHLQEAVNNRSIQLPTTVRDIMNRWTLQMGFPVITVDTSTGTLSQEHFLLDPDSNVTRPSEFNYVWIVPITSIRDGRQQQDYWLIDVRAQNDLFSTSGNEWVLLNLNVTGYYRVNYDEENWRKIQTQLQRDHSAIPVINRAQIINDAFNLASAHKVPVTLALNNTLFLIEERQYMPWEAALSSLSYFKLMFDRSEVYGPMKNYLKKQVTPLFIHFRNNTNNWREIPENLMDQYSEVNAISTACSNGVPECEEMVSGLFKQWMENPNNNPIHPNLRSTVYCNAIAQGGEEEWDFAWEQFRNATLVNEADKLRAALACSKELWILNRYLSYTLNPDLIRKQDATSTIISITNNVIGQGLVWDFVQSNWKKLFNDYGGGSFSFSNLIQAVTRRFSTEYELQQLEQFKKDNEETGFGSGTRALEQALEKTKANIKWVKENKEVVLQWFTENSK

## O=C1c2ccccc2-c2c1[n+]([O-])c1c([n+]2[O-])CCCC1 [A9.003]
Table 9, starred values = ID50, read-out: ID50 APN (values marked with *)
  IC50: 2 µM

## CC(=O)Oc1ccc([N+](=O)[O-])cc1/C=N/NC(=O)COc1cc(C)ccc1C(C)C [A4.055]
[1]
  IC50: 20.3 µM

## CCCOc1[nH]c(/N=C/c2ccccc2)c(C#N)c1C#N [A3.105]
[2]
  IC50: 20 µM

## NCC(O)CNCCc1ccccc1 (stereo not drawn) [A12.039]
Table 12, read-out: IC50APN
  IC50: 21.2 µM

## O=C(O)CC1S/C(=N/N=C/c2ccco2)NC1=O (stereo not drawn) [A4.138]
[3]
  IC50: 48.1 µM

## O=C(NNC1=C(Cl)C(=O)C(Cl)(Cl)C1=O)c1ccccc1 [A3.070]
[2]
  IC50: 15.2 µM

## O=C(N/N=C\c1ccco1)c1ccc(S(=O)(=O)N2CCCCCC2)cc1 [A3.029]
[2]
  IC50: 8 µM

## O=C(OCC1CCCO1)c1cc([N+](=O)[O-])cc([N+](=O)[O-])c1 (stereo not drawn) [A11.028]
Table 11, read-out: IC50APN
  IC50: 39.3 µM

## CC(C)CC1CC(=S)C(C2CCCCC2)C1=O (stereo not drawn) [A8.007]
[4]
  IC50: 8 µM

## O=C(N/N=C\C=C\c1ccco1)c1cc(-c2cccs2)n[nH]1 [A3.324]
Table 3, starred values = ID50, read-out: ID50 APN (values marked with *)
  IC50: 132 µM

## C/C(=N\NC(=O)COc1ccc(C)cc1[N+](=O)[O-])c1ccco1 [A4.187]
[3]
  IC50: 422 µM

## Cc1ccc(/C=N/NC(=O)COc2cccc(Cl)c2)o1 [A4.153]
[1]
  IC50: 62.7 µM

## CCCOC(=O)c1cc(-c2ccc(/C=C3\C(=O)N(CCCO)C(=O)C(C#N)=C3C)o2)ccc1Cl [A9.064]
[5]
  IC50: 23.8 µM

## O=C(N/N=C1/C(=O)Nc2ccc(F)cc21)/C(=C/c1ccccc1)NC(=O)c1ccccc1 [A3.242]
[2]
  IC50: 44.2 µM

## O=C(N/N=C/c1ccco1)c1ccc(O)cc1 [A3.082]
[2]
  IC50: 16.8 µM

## O=C(N/N=C/c1ccco1)c1cc(-c2ccco2)n[nH]1 [A4.058]
[1]
  IC50: 20.9 µM

## COc1c(OCC(O)C(C)(C)O)ccc2c1N=C1OC=CC1C2OC (stereo not drawn) [A3.321]
[2]
  IC50: 125 µM

## Cc1ccc(C(=O)N/C(=C\c2ccco2)C(=O)N2CCOCC2)cc1C [A3.178]
[2]
  IC50: 28.8 µM

## O=C(CNS(=O)(=O)c1ccc2c(c1)OCCO2)N/N=C/c1ccco1 [A3.274]
[2]
  IC50: 55.6 µM

## O=C(N/N=C\c1ccco1)c1ccc(S(=O)(=O)N2CCCCCC2)cc1 [A4.013]
[1]
  IC50: 8 µM

## Cc1cc(C(=O)N/N=C/c2ccc(C)o2)[nH]n1 [A3.191]
[2]
  IC50: 31.8 µM

## O=C(N/N=C\c1ccco1)c1ccc(Br)cc1 [A4.074]
[1]
  IC50: 24.5 µM

## O=C(O)C1N=NC(c2ccc(F)cc2)=CN1O (stereo not drawn) [A9.038]
[5]
  IC50: 17.1 µM

## CC(/C=C/c1ccco1)=N\NC(=O)CNc1ccc2ccccc2c1 [A4.091]
[1]
  IC50: 28.5 µM

## O=C(COc1cccc2ccccc12)N/N=C/c1ccco1 [A3.056]
[2]
  IC50: 12.9 µM

## CCOc1ccc(Br)cc1C(=O)N/N=C/c1ccco1 [A4.079]
[1]
  IC50: 25.8 µM

## O=C(N/N=C/c1ccco1)c1ccccc1[N+](=O)[O-] [A3.315]
[2]
  IC50: 92.2 µM

## Cc1ccc(OCC(=O)N/N=C/c2ccco2)cc1C [A3.218]
[2]
  IC50: 36.3 µM

## O=C(Cc1cccs1)N/N=C/C=C\c1ccco1 [A4.090]
[1]
  IC50: 28 µM

## Cc1[nH]c2ccccc2c1C(c1cc(Cl)ccc1O)N1CCOCC1 (stereo not drawn) [A3.046]
[2]
  IC50: 11.7 µM

## Cc1ccc(/C=N/NC(=O)c2cc(O)cc(O)c2)o1 [A3.160]
[2]
  IC50: 26.4 µM

## O=C(OCC1CCCO1)c1cc([N+](=O)[O-])cc([N+](=O)[O-])c1 (stereo not drawn) [A3.231]
[2]
  IC50: 39.3 µM

## COc1ccc(C2(CNC(=O)/C=C/c3ccco3)CCCC2)cc1OC [A3.162]
[2]
  IC50: 26.6 µM

## O=C(N/N=C/c1cc(Br)ccc1OC(=O)c1ccc([N+](=O)[O-])cc1)/C(=C\c1ccc2c(c1)OCO2)NC(=O)c1ccccc1 [A3.271]
[2]
  IC50: 54.2 µM

## COC(=O)C1=C(N)N2C(=O)CSC2=C(C(=O)OC(C)C)C1 [A14.002]
Table 14, read-out: IC50APN
  IC50: 5.9 µM

## CC(C)CC(NC(=O)C(CCC(N)=O)NC(=O)CNC(=O)C(NC(=O)OCC1c2ccccc2-c2ccccc21)C(C)C)C(=O)O (stereo not drawn) [A3.132] (Fmoc-VGQL-OH; configuration not given here)
[2]
  IC50: 22.5 µM

## Cc1nc(C)c(C(=O)N/N=C/c2ccco2)s1 [A4.021]
[1]
  IC50: 12.3 µM

## C/C(=N\NC(=O)c1ccccc1)c1ccc2ccccc2c1O [A4.107]
[1]
  IC50: 34.2 µM

## O=C(N/N=C/C=C\c1ccco1)c1ccco1 [A3.074]
[2]
  IC50: 16 µM

## CC1CCc2c(sc(NC(=O)C(C(F)(F)F)C(F)(F)F)c2C#N)C1 (stereo not drawn) [A3.266]
[2]
  IC50: 51.3 µM

## CC(=O)C1C(c2ccc(N(C)C)cc2)C2C(=O)N(C3CCCCC3)C(=O)N2C1c1sccc1C (stereo not drawn) [A8.036]
[4]
  IC50: 68 µM

## Cc1ccc(/C=N/NC(=O)c2cn(-c3nonc3N)nn2)o1 [A4.016]
[1]
  IC50: 10.9 µM

## O=C(COc1ccc2ccccc2c1)N/N=C/c1ccco1 [A4.029]
[1]
  IC50: 13.9 µM

## C=CCOC(=O)c1cc(-c2ccc(/C=C3/C(=O)N(CCCO)C(=O)C(C#N)=C3C)o2)ccc1Cl [A9.040]
[5]
  IC50: 18.1 µM

## CC1=C(C#N)C(O)=NC(=O)/C1=C/c1ccc(-c2ccc(Cl)cc2Cl)o1 [A13.018]
Table 13, read-out: IC50APN
  IC50: 32.4 µM
